Test results taken from PubChem BioAssay (NCI).
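48-hour exposure; five concentrations; linearly interpolated endpoints. The concentration for 50% growth inhibition is given as GI50. TGI: total growth inhibition.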

Tests used:
Test in all cases: NCI tumour cell line growth inhibition, 48 h
[1] = tested on: LOX IMVI melanoma
[2] = tested on: SK-MEL-28 melanoma
[3] = tested on: HL-60(TB) leukemia
[4] = tested on: BT-549 breast
[5] = tested on: CAKI-1 renal
[6] = tested on: MDA-MB-231 breast
[7] = tested on: DU-145 prostate
[8] = tested on: CCRF-CEM leukemia
[9] = tested on: OVCAR-5 ovarian
[10] = tested on: SW-620 colon
[11] = tested on: UACC-62 melanoma
[12] = tested on: PC-3 prostate
[13] = tested on: HCT-15 colon
[14] = tested on: SNB-75 CNS
[15] = tested on: NCI-H23 lung
[16] = tested on: OVCAR-3 ovarian
[17] = tested on: HCC-2998 colon
[18] = tested on: M14 melanoma
[19] = tested on: HCT-116 colon
[20] = tested on: SN12C renal
[21] = tested on: TK-10 renal
[22] = tested on: SK-MEL-2 melanoma
[23] = tested on: HS 578T breast
[24] = tested on: IGROV1 ovarian
[25] = tested on: SF-539 CNS
[26] = tested on: SF-295 CNS
[27] = tested on: SF-268 CNS
[28] = tested on: MALME-3M melanoma
[29] = tested on: COLO 205 colon
[30] = tested on: ACHN renal
[31] = tested on: RPMI-8226 leukemia
[32] = tested on: A498 renal
[33] = tested on: NCI-H522 lung
[34] = tested on: RXF 393 renal
[35] = tested on: 786-0 renal
[36] = tested on: KM12 colon
[37] = tested on: SNB-19 CNS
[38] = tested on: SK-OV-3 ovarian
[39] = tested on: MDA-MB-435
[40] = tested on: NCI/ADR-RES ovarian
[41] = tested on: HT29 colon
[42] = tested on: HOP-92 NSCLC
[43] = tested on: EKVX NSCLC
[44] = tested on: UO-31 renal
[45] = tested on: OVCAR-4 ovarian
[46] = tested on: SK-MEL-5 melanoma
[47] = tested on: HOP-62 NSCLC
[48] = tested on: MCF7 breast
[49] = tested on: UACC-257 melanoma
[50] = tested on: SR leukemia
[51] = tested on: K-562 leukemia
[52] = tested on: NCI-H460 lung
[53] = tested on: OVCAR-8 ovarian

`c1ccc(-c2nc(N3CCNCC3)c3nc(-c4ccccc4)oc3n2)cc1` showed a GI50 [1] of 1660 nM, a TGI [1] of 3170 nM and a GI50 [2] of 1810 nM. The TGI [2] was 3290 nM, the GI50 [3] was 1890 nM and the TGI [3] was 4080 nM. For the same compound, the GI50 [4] was 1670 nM, the TGI [4] was 3240 nM and the GI50 [5] was 1550 nM. For the same compound, the TGI [5] was 2940 nM, the GI50 [6] was 1670 nM and the TGI [6] was 3200 nM. The GI50 [7] was 1860 nM, the TGI [7] was 3330 nM and the GI50 [8] was 1380 nM. The TGI [8] was 3830 nM, the GI50 [9] was 1700 nM and the TGI [9] was 3150 nM. The GI50 [10] was 1860 nM, the TGI [10] was 3570 nM and the GI50 [11] was 1780 nM. It also gave a TGI [11] of 3230 nM, a GI50 [12] of 1660 nM and a TGI [12] of 3240 nM. For the same compound, the GI50 [13] was 1660 nM, the TGI [13] was 3180 nM and the GI50 [14] was 1260 nM. For the same compound, the TGI [14] was 2520 nM, the GI50 [15] was 1760 nM and the TGI [15] was 3320 nM. The GI50 [16] was 1780 nM, the TGI [16] was 3250 nM and the GI50 [17] was 1810 nM. It also gave a TGI [17] of 3490 nM, a GI50 [18] of 1960 nM and a TGI [18] of 3710 nM. It also gave a GI50 [19] of 1250 nM, a TGI [19] of 2900 nM and a GI50 [20] of 1690 nM. It also gave a TGI [20] of 3290 nM, a GI50 [21] of 1670 nM and a TGI [21] of 3320 nM. For the same compound, the GI50 [22] was 1910 nM, the TGI [22] was 3740 nM and the GI50 [23] was 1870 nM. For the same compound, the TGI [23] was 4110 nM, the GI50 [24] was 1650 nM and the TGI [24] was 3140 nM. It also gave a GI50 [25] of 1720 nM, a TGI [25] of 3130 nM and a GI50 [26] of 1860 nM. It also gave a TGI [26] of 3380 nM, a GI50 [27] of 1730 nM and a TGI [27] of 3460 nM. The GI50 [28] was 1700 nM, the TGI [28] was 3190 nM and the GI50 [29] was 2060 nM. For the same compound, the TGI [29] was 4120 nM, the GI50 [30] was 1710 nM and the TGI [30] was 3090 nM. It also gave a GI50 [31] of 2080 nM, a TGI [31] of 4640 nM and a GI50 [32] of 1420 nM. It also gave a TGI [32] of 2760 nM, a GI50 [33] of 1810 nM and a TGI [33] of 3860 nM. It also gave a GI50 [34] of 1830 nM, a TGI [34] of 3480 nM and a GI50 [35] of 1630 nM. It also gave a TGI [35] of 3460 nM, a GI50 [36] of 1910 nM and a TGI [36] of 3600 nM. The GI50 [37] was 1740 nM, the TGI [37] was 3340 nM and the GI50 [38] was 2000 nM. It also gave a TGI [38] of 3710 nM, a GI50 [39] of 1790 nM and a TGI [39] of 3220 nM. It also gave a GI50 [40] of 1870 nM, a TGI [40] of 3690 nM and a GI50 [41] of 1840 nM. The TGI [41] was 3850 nM, the GI50 [42] was 1500 nM and the TGI [42] was 3100 nM. It also gave a GI50 [43] of 1780 nM, a TGI [43] of 3390 nM and a GI50 [44] of 1530 nM. The TGI [44] was 2910 nM, the GI50 [45] was 1900 nM and the TGI [45] was 3630 nM. The GI50 [46] was 1800 nM, the TGI [46] was 3230 nM and the GI50 [47] was 1980 nM. For the same compound, the TGI [47] was 3940 nM, the GI50 [48] was 1700 nM and the TGI [48] was 3580 nM. It also gave a GI50 [49] of 1930 nM, a TGI [49] of 3810 nM and a GI50 [50] of 298 nM. The TGI [50] was 1200 nM, the GI50 [51] was 1440 nM and the TGI [51] was 4220 nM. It also gave a GI50 [52] of 1730 nM and a TGI [52] of 3380 nM.

For `COc1ccc(-c2ccc(-c3ccc(C(=N)N)cn3)s2)cc1Cl`, the GI50 [1] was 1630 nM, the TGI [1] was 3080 nM and the GI50 [2] was 1720 nM. It also gave a TGI [2] of 3350 nM, a GI50 [4] of 1670 nM and a TGI [4] of 3430 nM. It also gave a GI50 [5] of 1650 nM, a TGI [5] of 3030 nM and a GI50 [6] of 1620 nM. For the same compound, the TGI [6] was 3230 nM, the GI50 [7] was 1690 nM and the TGI [7] was 3060 nM. It also gave a GI50 [9] of 1550 nM, a TGI [9] of 3020 nM and a GI50 [10] of 1400 nM. For the same compound, the TGI [10] was 2730 nM, the GI50 [11] was 1880 nM and the TGI [11] was 3650 nM. The GI50 [12] was 1770 nM, the TGI [12] was 3510 nM and the GI50 [13] was 1620 nM. It also gave a TGI [13] of 3010 nM, a GI50 [14] of 1450 nM and a TGI [14] of 2850 nM. The GI50 [15] was 1830 nM, the TGI [15] was 3720 nM and the GI50 [16] was 1830 nM. The TGI [16] was 3320 nM, the GI50 [17] was 1890 nM and the TGI [17] was 3690 nM. For the same compound, the GI50 [18] was 1810 nM, the TGI [18] was 3440 nM and the GI50 [19] was 1840 nM. It also gave a TGI [19] of 3820 nM, a GI50 [20] of 1690 nM and a TGI [20] of 3390 nM. It also gave a GI50 [21] of 1790 nM, a TGI [21] of 3410 nM and a GI50 [22] of 2010 nM. The TGI [22] was 4140 nM, the GI50 [23] was 1790 nM and the TGI [23] was 3800 nM. For the same compound, the GI50 [24] was 1570 nM, the TGI [24] was 3280 nM and the GI50 [25] was 1640 nM. For the same compound, the TGI [25] was 3110 nM, the GI50 [26] was 1720 nM and the TGI [26] was 3270 nM. The GI50 [27] was 1800 nM, the TGI [27] was 3430 nM and the GI50 [28] was 1300 nM. It also gave a TGI [28] of 2900 nM, a GI50 [29] of 1410 nM and a TGI [29] of 3150 nM. For the same compound, the GI50 [30] was 1640 nM, the TGI [30] was 3000 nM and the GI50 [33] was 1950 nM. The TGI [33] was 4460 nM, the GI50 [34] was 1980 nM and the TGI [34] was 3870 nM. It also gave a GI50 [35] of 1980 nM, a TGI [35] of 4030 nM and a GI50 [36] of 1650 nM. It also gave a TGI [36] of 3040 nM, a GI50 [37] of 1730 nM and a TGI [37] of 3610 nM. It also gave a GI50 [38] of 1650 nM, a TGI [38] of 3410 nM and a GI50 [39] of 1430 nM. The TGI [39] was 2730 nM, the GI50 [40] was 1920 nM and the TGI [40] was 3840 nM. The GI50 [41] was 1180 nM, the TGI [41] was 2870 nM and the GI50 [53] was 2090 nM. For the same compound, the TGI [53] was 4580 nM, the GI50 [42] was 1680 nM and the TGI [42] was 3660 nM. The GI50 [43] was 1750 nM, the TGI [43] was 3410 nM and the GI50 [44] was 1590 nM. For the same compound, the TGI [44] was 3090 nM, the GI50 [45] was 1610 nM and the TGI [45] was 3300 nM. It also gave a GI50 [46] of 1820 nM, a TGI [46] of 3320 nM and a GI50 [47] of 1790 nM. The TGI [47] was 3830 nM, the GI50 [48] was 1520 nM and the TGI [48] was 3290 nM. The GI50 [52] was 1610 nM and the TGI [52] was 3020 nM.
